Assay: HPLC analysis of thermal degradation of drug substance and melt-processed solid dispersions
Type: physicochemical
Details: for HPLC analysis (thermal degradation): Table 1

CN(Cc1ccccc1)C(=O)[C@H](Cc1ccc2ccccc2c1)N(C)C(=O)[C@@H]1CCCN1c1nc(=O)c2ccccc2[nH]1 [TKA731, (S)-1-(4-Oxo-1,4-dihydro-quinazolin-2-yl)-pyrrolidine-2-carboxylic acid[(S)-1-(benzyl-methyl-carbamoyl)-2-naphthalen-2-yl-ethyl]-methyl-amide]
HPLC analysis (thermal degradation) (drug load 100%, PVPK-30 0%, amorphous TKA731): No degradation
HPLC analysis (thermal degradation) (solid dispersion, drug load 20%, PVPK-30 80%): No degradation
HPLC analysis (thermal degradation) (solid dispersion, drug load 30%, PVPK-30 70%): No degradation
HPLC analysis (thermal degradation) (solid dispersion, drug load 40%, PVPK-30 60%): No degradation
HPLC analysis (degradation) (Table 2, starting from amorphous drug, Tg 94.5 °C): No
HPLC analysis (degradation) (Table 2, starting from crystalline drug, melting point 175 °C): 20%
HPLC analysis (degradation) (Table 3, amorphous drug load 20%, PVPK-30 70%, sorbitol 10%, processing temperature 170 °C): No
HPLC analysis (degradation) (Table 3, amorphous drug load 30%, PVPK-30 65%, sorbitol 5%, processing temperature 170 °C): No
HPLC analysis (degradation) (Table 3, amorphous drug load 40%, PVPK-30 60%, sorbitol 0%, processing temperature 170 °C): No

Source: patent publication US8486447B2, “Pharmaceutical formulation” (Novartis AG, priority 2003, dated 2013)
